Assay results published in patent US9878982B2, “Pyridine derivatives and anti-mycobacterial use thereof” (priority 2014, dated 2018).
Values after ≈ are worked out from the molar mass of the structure shown.

What was measured:
[1] = system: M. tuberculosis H37Rv; assay: In vitro efficacy test using the H37Rv strain, Microplate Alamar Blue Assay (MABA) MIC; type: cell-based, Mycobacterium tuberculosis; settings: aerobic, 7H9 medium, Alamar Blue; for MIC: Mycobacterium tuberculosis, H37RV, read-out: M. tuberculosis H37Rv MABA (MIC)
[2] = system: Hela; assay: Hela cell cytotoxicity (CC50); settings: human cervical cancer cells; half of the toxic concentration
[3] = system: Mycobacterium smegmatis strain ATCC19420; assay: In vitro efficacy test using Mycobacterium smegmatis strain ATCC19420 (MIC); type: cell-based; settings: CA-MHB + 0.02% Tween 80, 30° C., read after 72 hours; for MIC: Mycolicibacterium smegmatis, ATCC19420, 72 h
[4] = system: M. tuberculosis H37R; assay: microbe, parasite or virus in culture; type: cell-based, Mycobacterium tuberculosis; settings: for MIC: Mycobacterium tuberculosis, H37R, read-out: M. tuberculosis H37R LORA (MIC)
[5] = system: Vero Cell; assay: Vero cell cytotoxicity (IC50); type: cell-based; settings: African green monkey kidney cells; for IC50: Chlorocebus sabaeus, Vero
[6] = Hela cell cytotoxicity (CC50); settings: human, HeLa cells (human cervical cancer cells), CC50_Hela, half of the toxic concentration

Row | SMILES | M. tuberculosis H37Rv MABA (MIC) [1] | CC50_Hela [2] | M. smegmatis ATCC19420 MIC [3] | M. tuberculosis H37R LORA (MIC) [4] | Vero Cell (IC50) [5] | MIC [1] | MIC [4] | IC50 [5] | CC50 [6] | MIC [3]
1 | COc1ncc(C2CCCC2)cc1C(c1ccccc1)C(O)(CCN(C)C)c1cccc2ccccc12 (stereo not drawn) [Compound 64] | 2.33 µg/mL | 28.75 µg/mL (≈ 58.1 µM) | 0.5 µg/mL | 3.06 µg/mL | >50 µg/mL |  |  |  |  | 
2 | COc1ncc(C2CCCCC2)cc1C(c1ccccc1)C(O)(CCN(C)C)c1cccc2ccccc12 (stereo not drawn) [Compound 103, 1-(5-cyclohexyl-2-methoxypyridin-3-yl)-4-(dimethylamino)-2-(naphthalen-1-yl)-1-phenylbutan-2-ol] |  | 57.72 µg/mL (≈ 113 µM) | 0.125 µg/mL |  |  | 0.76 µg/mL (≈ 1.49 µM) | 1.48 µg/mL (≈ 2.91 µM) | 32.3 µg/mL (≈ 63.5 µM) |  | 
3 | CC#Cc1cnc(OC)c(C(c2ccccc2)C(O)(CCN(C)C)c2cccc3ccccc23)c1 (stereo not drawn) [Compound 263, 4-(dimethylamino)-1-(2-methoxy-5-prop-1-ynyl-3-pyridyl)-2-(1-naphthyl)-1-phenylbutan-2-ol] |  |  |  |  |  | 1.38 µg/mL (≈ 2.97 µM) | 2.08 µg/mL (≈ 4.48 µM) | > 32 µg/mL | > 64 µg/mL | 0.5 µg/mL
4 | COc1ncc(N2CCOCC2)cc1C(c1ccccc1)C(O)(CCN(C)C)c1cccc2ccccc12 (stereo not drawn) [Compound 269, 4-(dimethylamino)-1-(2-methoxy-5-morpholinopyridin-3-yl)-2-(naphthalen-1-yl)-1-phenylbutan-2-ol] |  |  |  |  |  | 5.64 µg/mL (≈ 11 µM) | 6.3 µg/mL (≈ 12.3 µM) | > 32 µg/mL | 17.4 µg/mL (≈ 34.1 µM) | 0.25 µg/mL
5 | COc1ncc(-c2ccc(Cl)cc2)cc1C(c1ccccc1)C(O)(CCN(C)C)c1cc(F)cc(F)c1 (stereo not drawn) [Compound 280, 1-(5-(4-chlorophenyl)-2-methoxypyridin-3-yl)-2-(3,5-difluorophenyl)-4-dimethylamino-1-phenylbutan-2-ol] |  |  |  |  |  | 0.04 µg/mL (≈ 0.0765 µM) | 0.16 µg/mL (≈ 0.306 µM) | > 32 µg/mL | 35 µg/mL (≈ 66.9 µM) | 0.0156 µg/mL
6 | COc1ncc(-c2ccc(C(F)(F)F)cc2)cc1C(c1ccccc1)C(O)(CCN(C)C)c1cccc2ccccc12 (stereo not drawn) [Compound 285, 4-(dimethylamino)-1-(2-methoxy-5-(4-(trifluoromethyl)phenyl)pyridin-3-yl)-2-(naphthalen-1-yl)-1-phenylbutan-2-ol] |  |  |  |  |  | 0.96 µg/mL (≈ 1.68 µM) | 0.63 µg/mL (≈ 1.1 µM) | > 32 µg/mL | > 64 µg/mL | 0.0156 µg/mL
7 | COc1ncc(-c2ccc(Cl)cc2)cc1C(c1ccccc1)C(O)(CCN(C)C)c1cccc(F)c1F (stereo not drawn) [Compound 287, 1-(5-(4-chlorophenyl)-2-methoxy-3-pyridyl)-2-(2,3-difluorophenyl)-4-dimethylamino-1-phenylbutan-2-ol] |  |  |  |  |  | 0.04 µg/mL (≈ 0.0765 µM) | 0.16 µg/mL (≈ 0.306 µM) | > 32 µg/mL | > 64 µg/mL | 0.0312 µg/mL
8 | COc1ncc(-c2ccc(Cl)cc2)cc1C(c1ccccc1)C(O)(CCN(C)C)c1cccc(F)c1 (stereo not drawn) [Compound 297] |  |  |  |  |  | 0.1 µg/mL (≈ 0.198 µM) | 0.74 µg/mL (≈ 1.47 µM) | > 32 µg/mL | 39.1 µg/mL (≈ 77.5 µM) | 0.0312 µg/mL
9 | COc1ccc(-c2cnc(OC)c(C(c3ccccc3)C(O)(CCN(C)C)c3cccc4ccccc34)c2)cc1 (stereo not drawn) [Compound 299, 4-(dimethylamino)-1-(2-methoxy-5-(4-methoxyphenyl)pyridin-3-yl)-2-(naphthalen-1-yl)-1-phenylbutan-2-ol] |  |  |  |  |  | 0.33 µg/mL (≈ 0.62 µM) | 0.19 µg/mL (≈ 0.357 µM) | > 32 µg/mL | > 64 µg/mL | 0.125 µg/mL
10 | COc1ncc(-c2ccc(Cl)c(F)c2)cc1C(c1ccccc1)C(O)(CCN(C)C)c1cccc2ccccc12 (stereo not drawn) [Compound 303, 1-(5-(4-chloro-3-fluorophenyl)-2-methoxypyridin-3-yl)-4-(dimethylamino)-2-(naphthalen-1-yl)-1-phenylbutan-2-ol] |  |  |  |  |  | 0.19 µg/mL (≈ 0.342 µM) | 0.52 µg/mL (≈ 0.937 µM) | > 32 µg/mL | > 64 µg/mL | 0.0312 µg/mL
11 | COc1ncc(-c2ccc(Br)cc2)cc1C(c1ccccc1)C(O)(CCN(C)C)c1cccc(F)c1F (stereo not drawn) [Compound 312, 1-(5-(4-bromophenyl)-2-methoxypyridin-3-yl)-2-(2,3-difluorophenyl)-4-(dimethylamino)-1-phenylbutan-2-ol] |  |  |  |  |  | 0.04 µg/mL (≈ 0.0705 µM) | 0.19 µg/mL (≈ 0.335 µM) | > 32 µg/mL | 31.3 µg/mL (≈ 55.2 µM) | 0.0156 µg/mL
12 | COc1ncc(-c2ccc(Br)cc2)cc1C(c1ccccc1)C(O)(CCN(C)C)c1cc(F)cc(F)c1 (stereo not drawn) [Compound 316, 1-(5-(4-bromophenyl)-2-methoxypyridin-3-yl)-2-(3,5-difluorophenyl)-4-dimethylamino-1-phenylbutan-2-ol] |  |  |  |  |  | 0.04 µg/mL (≈ 0.0705 µM) | 2.97 µg/mL (≈ 5.23 µM) | > 32 µg/mL | > 64 µg/mL | 0.0156 µg/mL
13 | COc1ncc(-c2ccc(Br)cc2)cc1C(c1ccccc1)C(O)(CCN(C)C)c1cccc(F)c1 (stereo not drawn) [Compound 319] |  |  |  |  |  | 0.09 µg/mL (≈ 0.164 µM) | 0.22 µg/mL (≈ 0.4 µM) | > 32 µg/mL | 49.2 µg/mL (≈ 89.5 µM) | 0.0312 µg/mL
14 | COc1ncc(-c2ccc(Br)cc2)cc1C(c1ccc(Cl)cc1)C(O)(CCN(C)C)c1cccc2ccccc12 (stereo not drawn) [Compound 325, 1-(5-(4-bromophenyl)-2-methoxypyridin-3-yl)-1-(4-chlorophenyl)-4-dimethylamino-2-(naphthalen-1-yl)butan-2-ol] |  |  |  |  |  | 0.04 µg/mL (≈ 0.0649 µM) | 0.125 µg/mL (≈ 0.203 µM) | > 32 µg/mL | > 64 µg/mL | 0.0312 µg/mL
15 | COc1ncc(-c2ccc(Br)c(F)c2)cc1C(c1ccccc1)C(O)(CCN(C)C)c1cccc2ccccc12 (stereo not drawn) [Compound 331, 1-(5-(4-bromo-3-fluorophenyl)-2-methoxypyridin-3-yl)-4-(dimethylamino)-2-(naphthalen-1-yl)-1-phenylbutan-2-ol] |  |  |  |  |  | 0.04 µg/mL (≈ 0.0667 µM) | 4.07 µg/mL (≈ 6.79 µM) | > 32 µg/mL | > 64 µg/mL | 0.0625 µg/mL
16 | COc1ncc(C#Cc2ccccc2)cc1C(c1ccccc1)C(O)(CCN(C)C)c1cccc2ccccc12 (stereo not drawn) [Compound 337, 4-(dimethylamino)-1-[2-methoxy-5-(2-phenylethynyl)-3-pyridyl]-2-(1-naphthyl)-1-phenyl-butan-2-ol] |  |  |  |  |  | 0.14 µg/mL (≈ 0.266 µM) | 1.51 µg/mL (≈ 2.87 µM) | > 32 µg/mL | > 64 µg/mL | 0.25 µg/mL
17 | COc1ncc(-c2ccc(Cl)cc2)cc1C(c1ccccc1)C(O)(CCN(C)C)c1cc(Cl)cc(Cl)c1 (stereo not drawn) [Compound 341, 1-(5-(4-chlorophenyl)-2-methoxypyridin-3-yl)-2-(3,5-dichlorophenyl)-4-(dimethylamino)-1-phenylbutan-2-ol] |  |  |  |  |  | 0.031 µg/mL (≈ 0.0558 µM) | 0.23 µg/mL (≈ 0.414 µM) | > 32 µg/mL | > 64 µg/mL | ≤ 0.0625 µg/mL
18 | COc1ncc(-c2ccc(F)c(F)c2)cc1C(c1ccccc1)C(O)(CCN(C)C)c1cccc2ccccc12 (stereo not drawn) [Compound 347] |  |  |  |  |  | 0.23 µg/mL (≈ 0.427 µM) | 0.51 µg/mL (≈ 0.947 µM) | > 32 µg/mL | > 64 µg/mL | 0.0625 µg/mL
19 | COc1ncc(-c2ccc(Cl)cc2)cc1C(c1ccccc1)C(O)(CCN(C)C)c1cccc(Cl)c1 (stereo not drawn) [Compound 351, 2-(3-chlorophenyl)-1-(5-(4-chlorophenyl)-2-methoxypyridin-3-yl)-4-(dimethylamino)-1-phenylbutan-2-ol] |  |  |  |  |  | 0.11 µg/mL (≈ 0.211 µM) | 0.16 µg/mL (≈ 0.307 µM) | > 32 µg/mL | 25.5 µg/mL (≈ 48.9 µM) | 0.0156 µg/mL
20 | COc1ncc(-c2ccc(Br)cc2)cc1C(c1ccccc1)C(O)(CCN(C)C)c1cccc(Cl)c1 (stereo not drawn) [Compound 355, 1-(5-(4-bromophenyl)-2-methoxypyridin-3-yl)-2-(3-chlorophenyl)-4-(dimethylamino)-1-phenylbutan-2-ol] |  |  |  |  |  | 0.17 µg/mL (≈ 0.3 µM) | 0.21 µg/mL (≈ 0.371 µM) | > 32 µg/mL | 53.2 µg/mL (≈ 94.1 µM) | 0.0156 µg/mL
21 | COc1ncc(-c2ccc(OC(F)(F)F)cc2)cc1C(c1ccccc1)C(O)(CCN(C)C)c1cccc2ccccc12 (stereo not drawn) [Compound 375, 4-(dimethylamino)-1 (2-methoxy-5-(4-(trifluoromethoxy)phenyl)pyridin-3-yl)-2-(naphthalen-1-yl)-1-phenylbutan-2-ol] |  |  |  |  |  | 0.031 µg/mL (≈ 0.0528 µM) | 0.61 µg/mL (≈ 1.04 µM) | > 32 µg/mL | > 64 µg/mL | 0.0156 µg/mL
